PubChem BioAssay AID1963841 (Molecular Pharmacology Branch, DTP, NCI, 2024)
pIC50: −log10 of the molar value. Where “and” joins values, the source holds several entries; their conditions need not be identical. Equal entries are not always repeated.

System: 439559-082-T-J2-PDC spheroid viability
Experiment: Anticancer human tumor 439559-082-T-J2-PDC patient-derived colon adenocarcinoma cell line growth inhibition [POLQ]
Details: spheroids with HUVEC and MSC; for viability, T/C: stronger effect = lower value
Description: Multicellular complex tumor spheroid response to Polymerase (POL) inhibitors (novobiocin, ART-558, RP6685) in combination with a variety of drugs and investigational agents in selected tumor cell lines
The POL inhibitors (novobiocin, ART-558, and RP6685) were evaluated both individually and in combination with standard of care and investigational anticancer small molecules within a complex spheroid model of solid tumors. . Complex spheroids include a stromal component modeled by human endothelial cells (HUVEC) and fibroblasts modeled by human mesenchymal stem cells (MSCs). The concentration ranges selected for each drug and investigational agent were based upon clinically achievable concentrations if the clinical Cmax of the agent was known.
Compounds. The drugs and investigational agents: novobiocin (NSC847541), ART-558 (NSC835418), RP-6685 (NSC848927), peposertib (NSC802822), ceralasertib (NSC780249), elimusertib (NSC800525), camonsertib (NSC841442), AZD-1390 (NSC803789), olaparib (NSC753686), talazoparib (NSC767125), rucaparib (NSC756644), sotorasib (NSC818433), MRTX-1133 (NSC836407), SN-38 (NSC673596), topotecan (NSC609699), epotoside (NSC141540), doxorubicin (NSC123127), gemcitabine (NSC613327), 5-fluorouracil (NSC19893), paclitaxel (NSC125973), vemurafenib (NSC761431), MSA-2 (NSC828583), SN-011 (NSC837082), adavosertib (NSC754352), prexasertib (NSC758257), carboplatin (NSC241240) and oxaliplatin (NSC266046), were obtained from the National Cancer Institute (NCI) Developmental Therapeutics Program Chemical Repository (21). The FDA-approved anticancer drug set is available from the Developmental Therapeutics Program at https://dtp.cancer.gov/organization/dscb/obtaining/. […] The stock solutions were prepared in dimethyl sulfoxide (DMSO, Sigma-Aldrich, St. Louis, MO, cat. D2650), except for the platinum compounds which were prepared in saline (Quality Biological, Gaithersburg, MD, cat. 114-055-101), at 800-fold the tested concentration and stored at -70 degrees C prior to their use. All drugs and investigational agents were tested over a range starting from a high concentration at or near the clinical Cmax and decreasing in half-log increments. If the clinical Cmax for an agent had not been determined, the highest concentration tested was 10 microM, except for SN-38, which was tested at a high concentration of 1 microM.
Cell Culture. All cells were maintained in an incubator at 37 degrees C and 5% CO2 with 95% humidity. The PDC lines were cultured according to standard operating procedures established by the NCI PDMR (https://pdmr.cancer.gov). Table 3 of the manuscript, lists the cell lines along with the number of the three cell types plated to form the mct-spheroids and media for tumor cell growth. After thawing, all PDC lines, except 997537-175-T-J1-PDC and 415267-285-R-J2-PDC, were cultured in Matrigel-coated flasks prepared with a working solution of 1X Ham's F-12 nutrient mix, without supplementation (Thermo Fisher Scientific, cat. 11765054), 100 U/mL penicillin-streptomycin (Thermo Fisher Scientific, cat. 15140122), and 2.5% Matrigel (Corning Inc., Corning, NY, cat. 354248) for the first three passages. The two PDC lines 997537-175-T-J1-PDC and 415267-285-R-J2-PDC were cultured on uncoated flasks. The 857933-349-R-J2-PDC line was cultured in 6C/Colon 1B media containing advanced DMEM/F-12 (Thermo Fisher Scientific, cat. 12634028), 10 mM HEPES (Thermo Fisher Scientific, cat. 15630080), 1X GlutaMAX supplement (Thermo Fisher Scientific, cat. 35050061), 0.1 mg/mL primocin (InvivoGen, San Diego, CA, cat. ant-pm-2), 10% defined fetal bovine serum, heat inactivated (HyClone Laboratories Inc., Logan, UT, cat. SH30070.03HI), 50% L-WRN conditioned media (ATCC, cat. CRL-3276), 1.25 mM N-Acetyl-L-cysteine (Sigma-Aldrich, cat. A9165), 10 mM nicotinamide (Sigma-Aldrich, cat. N0636), 1X B-27 supplement (Thermo Fisher Scientific, cat. 17504044), 1X N-2 supplement (Thermo Fisher Scientific, cat. […]
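Further: spheroids exposed to compounds for seven days before readout.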
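Wherever viability, T/C is given: 100% = DMSO vehicle control viability.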

CC[C@@]1(O)C(=O)OCc2c1cc1n(c2=O)Cc2cc3c(CN(C)C)c(O)ccc3nc2-1 + COC1C(OC(N)=O)C(O)C(Oc2ccc3c(O)c(NC(=O)c4ccc(O)c(CC=C(C)C)c4)c(=O)oc3c2C)OC1(C)C
pIC50 (curve of first compound, second compound 0.0316 µM): < 7.00
pIC50 (curve of first compound, second compound 0.1 µM): < 7.00
pIC50 (curve of first compound, second compound 0.316 µM): < 7.00
pIC50 (curve of first compound, second compound 1 µM): < 7.00
pIC50 (curve of first compound, second compound 3.16 µM): < 7.00
pIC50 (curve of first compound, second compound 10 µM): < 7.00
viability, T/C (second compound 0.0316 µM, first compound 0.000316 µM): 99%
viability, T/C (second compound 0.0316 µM, first compound 0.001 µM): 100%
viability, T/C (second compound 0.0316 µM, first compound 0.00316 µM): 92.3%
viability, T/C (second compound 0.0316 µM, first compound 0.01 µM): 96.1%
viability, T/C (second compound 0.0316 µM, first compound 0.0316 µM): 89.5%
viability, T/C (second compound 0.0316 µM, first compound 0.1 µM): 74.2%
viability, T/C (second compound 0.1 µM, first compound 0.000316 µM): 99%
viability, T/C (second compound 0.1 µM, first compound 0.001 µM): 98.5%
viability, T/C (second compound 0.1 µM, first compound 0.00316 µM): 101%
viability, T/C (second compound 0.1 µM, first compound 0.01 µM): 101%
viability, T/C (second compound 0.1 µM, first compound 0.0316 µM): 87.7%
viability, T/C (second compound 0.1 µM, first compound 0.1 µM): 79.2%
viability, T/C (second compound 0.316 µM, first compound 0.000316 µM): 97.3%
viability, T/C (second compound 0.316 µM, first compound 0.001 µM): 99.5%
viability, T/C (second compound 0.316 µM, first compound 0.00316 µM): 105%
viability, T/C (second compound 0.316 µM, first compound 0.01 µM): 93.7%
viability, T/C (second compound 0.316 µM, first compound 0.0316 µM): 92.3%
viability, T/C (second compound 0.316 µM, first compound 0.1 µM): 79.1%
viability, T/C (second compound 1 µM, first compound 0.000316 µM): 105%
viability, T/C (second compound 1 µM, first compound 0.001 µM): 115%
viability, T/C (second compound 1 µM, first compound 0.00316 µM): 104%
viability, T/C (second compound 1 µM, first compound 0.01 µM): 97.5%
viability, T/C (second compound 1 µM, first compound 0.0316 µM): 94.2%
viability, T/C (second compound 1 µM, first compound 0.1 µM): 82.5%
viability, T/C (second compound 3.16 µM, first compound 0.000316 µM): 100%
viability, T/C (second compound 3.16 µM, first compound 0.001 µM): 99.8%
viability, T/C (second compound 3.16 µM, first compound 0.00316 µM): 105%
viability, T/C (second compound 3.16 µM, first compound 0.01 µM): 92.6%
viability, T/C (second compound 3.16 µM, first compound 0.0316 µM): 94.4%
viability, T/C (second compound 3.16 µM, first compound 0.1 µM): 74.7%
viability, T/C (second compound 10 µM, first compound 0.000316 µM): 105%
viability, T/C (second compound 10 µM, first compound 0.001 µM): 101%
viability, T/C (second compound 10 µM, first compound 0.00316 µM): 94.5%
viability, T/C (second compound 10 µM, first compound 0.01 µM): 100%
viability, T/C (second compound 10 µM, first compound 0.0316 µM): 91.3%
viability, T/C (second compound 10 µM, first compound 0.1 µM): 77.6%

COc1ccc([C@@H](O)c2cc(-c3ncnc4cc(N5CCOCC5)ccc34)c(F)cc2Cl)nn1
viability, T/C (compound 0.0316 µM): 94.6% and 84.4% and 97.3%
viability, T/C (compound 0.1 µM): 98.2% and 88.9% and 93%
viability, T/C (compound 0.316 µM): 93.3% and 85.8% and 90.6%
viability, T/C (compound 1 µM): 103% and 90.1% and 94.2%
viability, T/C (compound 3.16 µM): 89.3% and 96.5% and 85.9%
viability, T/C (compound 10 µM): 82.2% (2×) and 75.2%
pIC50 (curve of compound): < 5.00

CCCS(=O)(=O)Nc1ccc(F)c(C(=O)c2c[nH]c3ncc(-c4ccc(Cl)cc4)cc23)c1F
viability, T/C (compound 0.0316 µM): 97.4% and 77.9% and 99.4%
viability, T/C (compound 0.316 µM): 102% and 105% and 90%
viability, T/C (compound 1 µM): 103% and 87.8% and 100%
pIC50 (curve of compound): < 5.00 and 5.11

C=CCn1c(=O)c2cnc(Nc3ccc(N4CCN(C)CC4)cc3)nc2n1-c1cccc(C(C)(C)O)n1
viability, T/C (compound 0.00316 µM): 97.3% and 99% and 101%
viability, T/C (compound 0.01 µM): 93.6% and 96.3% and 96.2%
viability, T/C (compound 0.0316 µM): 98.5% and 99.2% and 89.3%
viability, T/C (compound 0.1 µM): 97.7% and 104% and 90.1%
viability, T/C (compound 0.316 µM): 99.3% and 97.5% and 91.7%
viability, T/C (compound 1 µM): 81.2% (2×) and 83.4%
pIC50 (curve of compound): < 6.00
